# Source: ChEMBL document CHEMBL1128492, “Effect of lipophilicity at N-1 on activity of fluoroquinolones against mycobacteria” (J Med Chem, 1995)
# Assays:
# [1] = Dissociation constant (pKa1)
# [2] = Dissociation constant (pKa2)
# Escherichia coli = assay: Minimum inhibitory concentration against gram-negative Escherichia coli Vogel (EC-1); type: functional
# [3] = tested on: Mycolicibacterium smegmatis; assay: Minimum inhibitory concentration against Mycobacterium smegmatis; type: functional
# Pseudomonas aeruginosa = assay: Minimum inhibitory concentration against gram-negative Pseudomonas aeruginosa U1-18 (PA-7); type: functional
# Staphylococcus aureus = assay: Minimum inhibitory concentration against gram-positive Staphylococcus aureus H-228 (SA-13); type: functional
# Streptococcus pyogenes = assay: Minimum inhibitory concentration against gram-positive Streptococcus pyogenes C203 (SP1-1); type: functional
# [4] = tested on: Mycolicibacterium fortuitum; assay: Minimum inhibitory concentration against Mycobacterium fortuitum; type: functional
SMILES,pKa [1],pKa [2],MIC (Escherichia coli),MIC [3],MIC (Pseudomonas aeruginosa),MIC (Staphylococcus aureus),MIC (Streptococcus pyogenes),MIC [4]
Cc1ccccc1-n1cc(C(=O)O)c(=O)c2cc(F)c(N3CCNCC3)cc21,5.98,8.59,0.4 µg/mL,8 µg/mL,1.6 µg/mL,3.1 µg/mL,> 3.1 µg/mL,4 µg/mL
Cc1ccccc1-n1cc(C(=O)O)c(=O)c2cc(F)c(N3CC(C)NC(C)C3)cc21 (configuration not stated),6.01,8.55,1.6 µg/mL,8 µg/mL,> 3.1 µg/mL,> 3.1 µg/mL,> 3.1 µg/mL,1 µg/mL
Cc1c(F)ccc(-n2cc(C(=O)O)c(=O)c3cc(F)c(N4CC(C)NC(C)C4)cc32)c1F (configuration not stated),5.94,8.47,3.1 µg/mL,4 µg/mL,> 3.1 µg/mL,1.6 µg/mL,> 3.1 µg/mL,1 µg/mL
CC1CN(c2cc3c(cc2F)c(=O)c(C(=O)O)cn3-c2ccc(Cl)cc2Cl)CC(C)N1 (configuration not stated),5.75,8.37,1.6 µg/mL,4 µg/mL,> 3.1 µg/mL,> 3.1 µg/mL,> 3.1 µg/mL,2 µg/mL
CC1CN(c2cc3c(cc2F)c(=O)c(C(=O)O)cn3-c2ccccc2)CC(C)N1 (configuration not stated),6.12,8.58,0.4 µg/mL,4 µg/mL,1.6 µg/mL,1.6 µg/mL,3.1 µg/mL,2 µg/mL
Cc1ccc(-n2cc(C(=O)O)c(=O)c3cc(F)c(N4CC(C)NC(C)C4)cc32)c(C)c1 (configuration not stated),6.05,8.24,3.1 µg/mL,16 µg/mL,> 3.1 µg/mL,> 3.1 µg/mL,> 3.1 µg/mL,4 µg/mL
Cc1ccc(-n2cc(C(=O)O)c(=O)c3cc(F)c(N4CCNCC4)cc32)c(F)c1,5.96,8.34,0.2 µg/mL,2 µg/mL,1.6 µg/mL,1.6 µg/mL,3.1 µg/mL,1 µg/mL
O=C(O)c1cn(-c2ccc(Cl)cc2Cl)c2cc(N3CCNCC3)c(F)cc2c1=O,,,0.4 µg/mL,4 µg/mL,3.1 µg/mL,> 3.1 µg/mL,> 3.1 µg/mL,2 µg/mL
CC1CN(c2cc3c(cc2F)c(=O)c(C(=O)O)cn3-c2ccc(F)cc2)CC(C)N1 (configuration not stated),,,0.2 µg/mL,1 µg/mL,0.8 µg/mL,0.4 µg/mL,0.8 µg/mL,0.25 µg/mL
Cc1cc(F)ccc1-n1cc(C(=O)O)c(=O)c2cc(F)c(N3CC(C)NC(C)C3)cc21 (configuration not stated),6.16,8.16,0.4 µg/mL,2 µg/mL,1.6 µg/mL,1.6 µg/mL,> 3.1 µg/mL,2 µg/mL
O=C(O)c1cn(-c2ccccc2F)c2cc(N3CCNCC3)c(F)cc2c1=O,,,0.1 µg/mL,2 µg/mL,0.8 µg/mL,0.8 µg/mL,1.6 µg/mL,0.25 µg/mL
O=C(O)c1cn(-c2ccc(F)cc2F)c2cc(N3CCNCC3)c(F)cc2c1=O,5.87,8.31,0.1 µg/mL,0.5 µg/mL,0.2 µg/mL,0.4 µg/mL,0.4 µg/mL,0.25 µg/mL
Cc1ccc(-n2cc(C(=O)O)c(=O)c3cc(F)c(N4CCNCC4)cc32)c(C)c1,,,0.8 µg/mL,32 µg/mL,3.1 µg/mL,> 3.1 µg/mL,> 3.1 µg/mL,16 µg/mL
CC1CN(c2cc3c(cc2F)c(=O)c(C(=O)O)cn3-c2ccccc2F)CC(C)N1 (configuration not stated),5.88,8.51,0.4 µg/mL,2 µg/mL,1.6 µg/mL,1.6 µg/mL,3.1 µg/mL,0.5 µg/mL
Cc1c(F)ccc(-n2cc(C(=O)O)c(=O)c3cc(F)c(N4CCNCC4)cc32)c1F,5.87,8.54,0.8 µg/mL,8 µg/mL,3.1 µg/mL,1.6 µg/mL,3.1 µg/mL,0.5 µg/mL
Cc1ccc(-n2cc(C(=O)O)c(=O)c3cc(F)c(N4CC(C)NC(C)C4)cc32)c(F)c1 (configuration not stated),,,0.8 µg/mL,2 µg/mL,3.1 µg/mL,3.1 µg/mL,> 3.1 µg/mL,1 µg/mL
O=C(O)c1cn(-c2ccccc2)c2cc(N3CCNCC3)c(F)cc2c1=O,,,0.1 µg/mL,2 µg/mL,0.8 µg/mL,0.8 µg/mL,3.1 µg/mL,0.5 µg/mL
Cc1ccc(-n2cc(C(=O)O)c(=O)c3cc(F)c(N4CCNCC4)cc32)cc1,,,0.4 µg/mL,4 µg/mL,1.6 µg/mL,3.1 µg/mL,> 3.1 µg/mL,2 µg/mL
CC1CN(c2cc3c(cc2F)c(=O)c(C(=O)O)cn3-c2ccc(F)cc2F)CC(C)N1 (configuration not stated),5.94,8.26,0.4 µg/mL,0.5 µg/mL,0.8 µg/mL,0.4 µg/mL,0.8 µg/mL,0.25 µg/mL
Cc1cc(F)ccc1-n1cc(C(=O)O)c(=O)c2cc(F)c(N3CCNCC3)cc21,6.11,8.37,0.2 µg/mL,4 µg/mL,0.4 µg/mL,0.8 µg/mL,1.6 µg/mL,1 µg/mL
Cc1ccc(-n2cc(C(=O)O)c(=O)c3cc(F)c(N4CC(C)NC(C)C4)cc32)cc1 (configuration not stated),6.1,8.61,0.8 µg/mL,4 µg/mL,3.1 µg/mL,3.1 µg/mL,> 3.1 µg/mL,1 µg/mL
O=C(O)c1cn(C2CC2)c2cc(N3CCNCC3)c(F)cc2c1=O [CIPROFLOXACIN],,,,0.25 µg/mL,0.2 µg/mL,,0.4 µg/mL,0.06 µg/mL
O=C(O)c1cn(-c2ccc(F)cc2)c2cc(N3CCNCC3)c(F)cc2c1=O [SARAFLOXACIN],6.02,8.59,0.1 µg/mL,1 µg/mL,0.2 µg/mL,0.4 µg/mL,0.4 µg/mL,0.25 µg/mL
C[C@@H]1CN(c2c(F)c(N)c3c(=O)c(C(=O)O)cn(C4CC4)c3c2F)C[C@H](C)N1 [SPARFLOXACIN],,,0.025 µg/mL,0.13 µg/mL,0.8 µg/mL,0.05 µg/mL,0.1 µg/mL,0.06 µg/mL
